The test system of test [1] is Maximal Electrochoc Seizures (MES). Description: Maximal Electrochoc Seizures (MES). Format: in vivo. As to conditions: mice.
Test [2] has as its system Pentylenetetrazole (PTZ) convulsions. Kind of test: Pentylenetetrazole (PTZ) convulsions. The conditions noted are these: mice. It counts as in vivo.
The subject of test [3] is Paclitaxel induced neuropathic sensitization (PINS). Description: Paclitaxel induced neuropathic sensitization (PINS) in the formalin test of pain. Format: in vivo. As to conditions: mice; for suppression of PINS: 35-40 mn central sensitization phase, formalin induced pain. The method, then: Fendiline at 1 or 5 mg/kg, per os (po) suppressed the PINS by 75% or 63%, respectively, in the 35-40 mn central sensitization phase, in the formalin induced pain, in mice (Compound A1).
When fendiline was administered at 25 or 75 mg/kg (po) per os (po), PINS diminished by 181% or 275%, respectively in mice (Compound A2), i.e., less pain reaction than the control which hadn't receive Paclitaxel.

Test [4] addresses sigma-1 (Homo sapiens, UniProt Q99720). Kind of test: sigma-1 affinity. Format: binding.
The subject of test [5] is brain dopamine turnover. Kind of test: brain dopamine turnover, rats. Format: in vivo. The conditions noted are these: 5-50 mg/kg ip. The source says:
(§1) It could be co-administered with the μ-ORAs amplifying their analgesic activity and, more importantly, protecting against the opioid dependence of the μ-ORAs.

In test [6] the test system is brain dopamine turnover. The conditions noted are these: mice; cited from earlier work.
The subject of test [7] is brain dopamine turnover. Kind of test: brain dopamine turnover, mice. Format: in vivo. As to conditions: 5-50 mg/kg ip.
Excerpt: as §1

The target in test [8] is sigma-2 receptors (Homo sapiens, UniProt Q5BJF2). Kind of test: sigma-2 receptor affinity. Format: binding.
Test [9] deals with brain dopamine turnover. The conditions noted are these: rats; cited from earlier work.

Read-outs that look alike come from different tables or passages of the source.

As a reminder, the Ki is a dissociation constant, usually derived from enzyme kinetics or from competition with a known ligand. Read a low Ki as higher affinity.

Chain of sigma-1 (Q99720 whole entry): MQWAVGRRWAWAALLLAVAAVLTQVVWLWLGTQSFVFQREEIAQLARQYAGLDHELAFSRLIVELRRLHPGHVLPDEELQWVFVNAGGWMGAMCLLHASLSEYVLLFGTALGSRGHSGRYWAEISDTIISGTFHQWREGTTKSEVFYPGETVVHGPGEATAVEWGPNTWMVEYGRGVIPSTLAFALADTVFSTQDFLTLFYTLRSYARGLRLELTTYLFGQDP
Chain of sigma-2 receptors (Q5BJF2 whole entry): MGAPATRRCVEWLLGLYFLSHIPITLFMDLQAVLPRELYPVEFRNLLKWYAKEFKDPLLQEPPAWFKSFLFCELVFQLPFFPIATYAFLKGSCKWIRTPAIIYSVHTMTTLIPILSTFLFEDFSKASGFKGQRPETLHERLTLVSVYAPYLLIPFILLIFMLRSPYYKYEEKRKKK

Take `CC(NCCC(c1ccccc1)c1ccccc1)c1ccccc1` (stereo not drawn) [Fendiline, 3,3-diphenyl-N-(1-phenylethyl) propan-1-amine]: the “anticonvulsive activity in MES” value in [1] is listed as “absence of anticonvulsive activities”. Besides, in [2], the “anticonvulsive activity in PTZ convulsions” value is recorded as “absence of anticonvulsive activities”. Further, the “suppression of PINS” value in test [3] (1 mg/kg po) turned out to be 75%; in [3] (5 mg/kg po), 63%. The PINS diminished in test [3] (25 mg/kg po) is given as 181%; in [3] (75 mg/kg po), 275%. Also, the results for the inhibition constant (Ki) in test [4] and in test [8] were 14 to 18 nM and 730 to 850 nM, respectively. Further, the “brain DA turnover” value in test [5] and in test [7] was “decrease of the DA turnover” in each case. Further, the brain dopamine turnover entry in [6] and in test [9] was “decrease of the brain dopamine turnover” throughout.

(Values after US20170071879A1, “PROTOTYPICAL ANALGESIC PROFILE OF 3,3-DIPHENYL-N-(1-PHENYLETHYL)PROPAN-1-AMINE (FENDILINE)” (priority 2015, published 2017).)
